The values that follow come from ChEMBL document CHEMBL3232943, “SAR study on arylmethyloxyphenyl scaffold: looking for a P-gp nanomolar affinity” (Eur J Med Chem, 2014).

Bounds are passed on as bounds.

The target of data set [1] is T1, ATP-dependent translocase ABCB1 (Homo sapiens, UniProt P08183). Put plainly: Inhibition of P-glycoprotein (unknown origin) expressed in MDCK cells assessed as reduction of calcein-AM transport after 30 mins by fluorescence assay. In kind it is cell-based.
Data set [2] deals with Multidrug resistance-associated protein 1 (Homo sapiens, UniProt P33527). Put plainly: Modulation of MRP1 (unknown origin) expressed in MDCK cells at 100 uM. In kind it is cell-based.
A short description of data set [3]: Efflux ratio of permeability from basolateral to apical side over apical to basolateral side in human Caco2 cells at 100 uM after 30 mins by UV spectroscopy. It is filed as ADME, cell-based. The following applies: Caco-2.
Data set [4] has as its target T1, ATP-dependent translocase ABCB1. Put plainly: Activation of ATPase activity of MDR1 (unknown origin) expressed in MDCK cells assessed as reduction of reduction of ATP level at 100 uM after 2 hrs by luminescence/ATPlite assay. It is filed as cell-based. Also noted: scale not given: the % may be the effect or the level left. (In general: In ATP-based viability assays light output follows the ATP content of the culture.)

The nature of data set [5]: Cytotoxicity against MDR1 expressing MDCK cells assessed as cell viability at 1 uM after 48 hrs by MTT assay in presence of MC18 P-gp inhibitor. In kind it is ADME, cell-based, Canis lupus familiaris. The following applies: dog, with MC18 (P-gp inhibitor), concentration not stated, read-out: Activity. (Tetrazolium assays rely on reduction of a dye to a coloured formazan, in cell work by metabolically active cells.)

Data set [6] is described as follows: Cytotoxicity against MDR1 expressing MDCK cells assessed as cell viability at 1 uM after 48 hrs by MTT assay. In kind it is ADME, cell-based, Canis lupus familiaris. The following applies: dog, read-out: Activity.
A further data set deals with MDCK. Put plainly: Cytotoxicity against MDR1 expressing MDCK cells assessed as cell viability at 1 uM after 24 hrs by MTT assay. It is filed as ADME, cell-based, Canis lupus familiaris. The following applies: dog.

Sequence of Multidrug resistance-associated protein 1 (P33527 whole entry): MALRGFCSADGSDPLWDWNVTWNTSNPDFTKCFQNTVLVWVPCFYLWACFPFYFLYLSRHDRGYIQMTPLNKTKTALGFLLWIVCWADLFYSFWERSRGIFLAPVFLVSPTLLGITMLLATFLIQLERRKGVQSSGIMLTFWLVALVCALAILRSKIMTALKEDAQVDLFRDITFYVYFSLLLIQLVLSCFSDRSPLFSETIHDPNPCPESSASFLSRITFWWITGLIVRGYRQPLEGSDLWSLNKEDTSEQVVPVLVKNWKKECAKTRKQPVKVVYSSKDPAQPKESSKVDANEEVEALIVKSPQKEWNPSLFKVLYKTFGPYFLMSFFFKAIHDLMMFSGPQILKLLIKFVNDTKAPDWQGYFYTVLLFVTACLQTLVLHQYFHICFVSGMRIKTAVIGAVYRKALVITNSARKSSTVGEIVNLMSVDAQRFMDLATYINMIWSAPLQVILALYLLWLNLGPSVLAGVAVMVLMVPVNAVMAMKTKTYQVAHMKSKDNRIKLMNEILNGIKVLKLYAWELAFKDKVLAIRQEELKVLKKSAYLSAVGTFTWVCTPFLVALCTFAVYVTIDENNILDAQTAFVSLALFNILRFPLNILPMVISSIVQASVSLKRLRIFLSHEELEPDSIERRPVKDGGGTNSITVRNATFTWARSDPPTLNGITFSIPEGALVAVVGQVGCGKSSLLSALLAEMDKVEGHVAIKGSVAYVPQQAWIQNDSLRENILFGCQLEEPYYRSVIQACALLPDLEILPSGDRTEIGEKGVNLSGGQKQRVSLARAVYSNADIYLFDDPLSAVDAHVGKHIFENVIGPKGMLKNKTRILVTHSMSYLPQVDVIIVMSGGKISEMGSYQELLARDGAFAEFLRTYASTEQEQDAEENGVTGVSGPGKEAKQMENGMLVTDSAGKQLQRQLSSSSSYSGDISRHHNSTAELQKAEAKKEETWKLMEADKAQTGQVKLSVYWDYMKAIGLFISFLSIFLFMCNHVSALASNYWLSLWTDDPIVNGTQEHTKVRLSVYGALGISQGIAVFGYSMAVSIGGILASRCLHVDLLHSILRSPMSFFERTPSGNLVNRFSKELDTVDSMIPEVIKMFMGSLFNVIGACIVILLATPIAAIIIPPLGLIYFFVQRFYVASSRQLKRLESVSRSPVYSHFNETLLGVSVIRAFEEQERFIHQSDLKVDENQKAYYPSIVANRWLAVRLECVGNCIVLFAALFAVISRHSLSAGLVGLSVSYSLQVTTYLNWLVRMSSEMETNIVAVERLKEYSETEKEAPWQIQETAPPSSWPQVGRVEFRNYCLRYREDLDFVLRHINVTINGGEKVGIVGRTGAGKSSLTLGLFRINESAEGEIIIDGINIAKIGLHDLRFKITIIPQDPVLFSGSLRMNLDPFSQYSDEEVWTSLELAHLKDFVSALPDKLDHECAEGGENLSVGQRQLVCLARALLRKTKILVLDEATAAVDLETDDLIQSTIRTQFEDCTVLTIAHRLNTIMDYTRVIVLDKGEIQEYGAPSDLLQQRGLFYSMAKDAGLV
T1 sequence (P08183 whole entry): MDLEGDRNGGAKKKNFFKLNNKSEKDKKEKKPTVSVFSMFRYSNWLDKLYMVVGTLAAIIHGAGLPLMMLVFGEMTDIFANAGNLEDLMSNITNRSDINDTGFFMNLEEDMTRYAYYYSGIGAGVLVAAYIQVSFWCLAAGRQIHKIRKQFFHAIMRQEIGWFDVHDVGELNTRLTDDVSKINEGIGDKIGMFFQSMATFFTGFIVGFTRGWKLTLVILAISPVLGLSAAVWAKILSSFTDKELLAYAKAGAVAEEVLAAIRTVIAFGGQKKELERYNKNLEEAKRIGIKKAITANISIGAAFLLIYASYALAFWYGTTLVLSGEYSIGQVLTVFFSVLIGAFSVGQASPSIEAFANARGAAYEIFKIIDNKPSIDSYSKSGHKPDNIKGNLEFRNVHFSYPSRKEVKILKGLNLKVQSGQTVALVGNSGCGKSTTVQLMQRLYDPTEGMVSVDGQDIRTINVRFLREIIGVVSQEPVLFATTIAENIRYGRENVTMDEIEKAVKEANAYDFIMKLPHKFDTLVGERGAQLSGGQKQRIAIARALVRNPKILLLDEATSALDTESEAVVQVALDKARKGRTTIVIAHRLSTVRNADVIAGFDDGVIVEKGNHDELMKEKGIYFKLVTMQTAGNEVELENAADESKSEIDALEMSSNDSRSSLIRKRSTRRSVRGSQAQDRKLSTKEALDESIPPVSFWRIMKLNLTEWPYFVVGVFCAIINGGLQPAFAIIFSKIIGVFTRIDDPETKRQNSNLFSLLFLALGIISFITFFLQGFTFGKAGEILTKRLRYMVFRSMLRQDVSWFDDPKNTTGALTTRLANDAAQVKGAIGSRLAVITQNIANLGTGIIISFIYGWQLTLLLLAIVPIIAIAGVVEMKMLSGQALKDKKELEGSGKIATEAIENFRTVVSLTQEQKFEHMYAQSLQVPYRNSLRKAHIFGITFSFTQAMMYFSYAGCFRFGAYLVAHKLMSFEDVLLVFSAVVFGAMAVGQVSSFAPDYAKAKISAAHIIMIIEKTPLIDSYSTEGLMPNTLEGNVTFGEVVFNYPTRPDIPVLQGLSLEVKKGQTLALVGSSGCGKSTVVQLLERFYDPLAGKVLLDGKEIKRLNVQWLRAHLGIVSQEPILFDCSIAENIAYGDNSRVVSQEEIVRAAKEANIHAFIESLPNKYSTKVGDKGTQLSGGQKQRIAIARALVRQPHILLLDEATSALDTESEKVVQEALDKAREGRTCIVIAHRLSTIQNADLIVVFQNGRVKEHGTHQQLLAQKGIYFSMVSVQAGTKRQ

One may read the EC50 as the concentration at which the effect is half-maximal. Usually efflux ratio stands for the permeability from basolateral to apical divided by that in the opposite direction, in the common usage. With `COc1cccc(CCc2ccccc2NCc2ccncc2)c1`, the EC50 in data set [1] was 11.5 µM. The Activity entry in data set [2] is recorded as “Not Active”; in data set [4], “Active”. The efflux ratio at 0.5 h, 100 µM in data set [3] came out at 3.

On to `COc1cccc(CCc2ccccc2OCc2ncccn2)c1`, for which the EC50 in data set [1] was 32.5 µM. The figures for the Activity entry in data set [2] and in data set [4] were “Not Active” and “Active”, respectively. Further, the efflux ratio at 0.5 h, 100 µM in data set [3] is 2.91.

`COc1cc2c(cc1OC)CN(CCc1ccc(NC(=O)c3cc(OC)c(OC)cc3NC(=O)c3cnc4ccccc4c3)cc1)CC2` [TARIQUIDAR]: the efflux ratio at 0.5 h, 100 µM in data set [3] stood at 22. For the same compound, the Activity in data set [4] stood at 30%.

On to `COc1cc(CCc2ccccc2OCc2cc(OC)c(OC)c(OC)c2)cc(OC)c1OC`, for which, in data set [1], the EC50 is 0.0071 µM. In addition, the Activity entry is given as “Not Active” in data set [2], “Active” in data set [4] and “Non-toxic” with MDCK. In addition, the results for the viability at 48 h, 1 µM in data set [5] and in data set [6] were 63% and 40%, respectively. For the same compound, the efflux ratio at 0.5 h, 100 µM in data set [3] was found to be 3.96.

With `COc1ccc(CCc2ccccc2OCc2ccc(OC)c(OC)c2)cc1OC`, the EC50 in data set [1] was 2.1 µM. Also, the Activity entry in data set [2] and in data set [4] was “Not Active” throughout. Moreover, the efflux ratio at 0.5 h, 100 µM in data set [3] turned out to be 2.77.

As to `COc1ccc(COc2ccccc2CCc2cc(OC)c(OC)c(OC)c2)cc1OC`, the EC50 in data set [1] is 0.9 µM. Also, the Activity result was “Not Active” in data set [2] and “Active” in data set [4]. The efflux ratio at 0.5 h, 100 µM in data set [3] was found to be 3.8.

Take `COc1cccc(COc2ccccc2CCc2cc(OC)c(OC)c(OC)c2)c1OC`: the EC50 in data set [1] was 3.2 µM. Moreover, the Activity entry in data set [2] was “Not Active”; in data set [4], “Active”. Moreover, in data set [3], the efflux ratio at 0.5 h, 100 µM was found to be 3.45.

Take `Clc1ccc(COc2ccccc2CCc2ccccc2)c(Cl)c1`: in data set [1], the EC50 was > 100 µM. Moreover, the Activity entry in data set [2] is “Not Active”.

`COc1cccc(CCc2ccccc2OCc2cc(OC)c(OC)c(OC)c2)c1OC`: in data set [1], the EC50 is 0.3 µM. The Activity result in data set [2] is on record as “Not Active”; in data set [4] it was “Active”. In data set [3], the efflux ratio at 0.5 h, 100 µM worked out at 3.23.

`COc1cccc(CCc2ccccc2OCc2ccc3c(c2)OCO3)c1`: the EC50 in data set [1] is > 100 µM. Also, the Activity result in data set [2] was “Not Active”; in data set [4] it was “Active”.

For the compound `COc1cccc(CCc2ccccc2NC(=O)c2cccc(OC)c2)c1`, the EC50 in data set [1] was 10.9 µM. The Activity result in data set [2] is on record as “Not Active”; in data set [4], “Active”. Further, the efflux ratio at 0.5 h, 100 µM in data set [3] was found to be 4.1.

As to `COc1cccc(CCc2ccccc2OCc2cc(OC)c(OC)c(OC)c2)c1`, the EC50 in data set [1] is 3.1 µM. Besides, the Activity entry in data set [2] and in data set [4] was “Not Active” throughout. In addition, the efflux ratio at 0.5 h, 100 µM in data set [3] came to 3.14.

With `COc1cccc(CCc2ccccc2OCc2cccs2)c1`, in data set [1], the 50% effective concentration (EC50) was > 100 µM. In addition, the Activity entry in data set [2] is reported as “Not Active”; in data set [4] it was “Active”.

On to `COc1cc(COc2ccccc2CCc2cc(OC)c(OC)c(OC)c2)cc(OC)c1`, for which, in data set [1], the EC50 was 1.3 µM. Also, the Activity entry in data set [2] and in data set [4] was “Not Active” each time.

For the compound `COc1cccc(CCc2ccccc2NC(=O)c2cccnc2)c1`, the EC50 in data set [1] was 43.7 µM. The figures for the Activity entry in data set [2] and in data set [4] were “Not Active” and “Active”, respectively.
